What was measured:
mice = assay: Kidney toxicity determined by urine test; assay type: in vivo, mouse; details: for glucose in urine (in words): i.p., all doses
Protocol: (2) Kidney toxicity determined by urine test
PQQ.2Na, PQQ trimethyl ester and PQQ triallyl ester were intraperitoneally administered to mice and they were bred in the same manner as in the above acute toxicity test. The doses per kg of body weight of mouse were 20, 40 and 80 mg for PQQ.2Na and 20, 40, 80, 160 and 200 mg for PQQ triesters. Urine was collected every day and glucose concentration was examined using clinical examination reagent (trademark: […] II manufactured by Miles.Sankyo Co.).

[1] = tested on: D-galactosamine-induced liver diseases; assay: Pharmacological effect (1) on D-galactosamine-induced liver diseases; assay type: in vivo, SD rats; details: D-galactosamine 1 g/kg rat s.c., 23 hours, average of five rats; for Total bilirubin in serum: D-galactosamine alone 1.0; for GPT in serum: D-galactosamine alone 552; for GOT in serum: D-galactosamine alone 1067
Protocol: Pharmacological effect (1) of PQQ triesters on D-galactosamine-induced liver diseases;
Forty SD rats (male 7 weeks old, body weight: about 240 g; supplied by Japan Charles River Co.) were divided to eight groups (A-H) each consisting of five rats. All rats were fasted for 16 hours and 1.2 ml of a solution containing 0.4 mg/ml of PQQ trimethyl ester was intraperitoneally administered to the rats of group C, 1.2 ml of a solution containing 1.0 mg/ml of PQQ trimethyl ester was intraperitoneally administered to the rats of group D, 1.2 ml of a solution containing 2.0 mg/ml of PQQ trimethyl ester was intraperitoneally administered to the rats of group E, 1.2 ml of a solution containing 0.4 mg/ml of PQQ triallyl ester was intraperitoneally administered to the rats of group F, 1.2 ml of a solution containing 1.0 mg/ml of PQQ triallyl ester was intraperitoneally administered to the rats of group G, and 1.2 ml of a solution containing 2.0 mg/ml of PQQ triallyl ester was intraperitoneally administered to the rats of group H and furthermore, after 40 minutes, the same PQQ triesters in the same doses as above were intraperitoneally administered to respective rats. In these cases, the PQQ triesters were suspended in physiological saline containing 1% Tween 80 and administered to the rats. 1.2 ml of physiological saline was intraperitoneally administered to the rats of group B in place of PQQ triesters. Furthermore, after 20 minutes, 1.2 ml of a solution of 2 g of D-galactosamine in 10 ml of physiological saline was subcutaneously injected to the rats of groups B-H. Neither PQQ triesters nor D-galactosamine were administered to the rats of group A.
(§1) After 23 hours from administration of D-galactosamine, blood was collected from abdominal main artery and serum was obtained by centrifugation therefrom.
GPT, GOT and amount of total bilirubin in the serum were measured by clinical examination reagent (trademark: FUJI DRYCHEMSLIDE manufactured by Fuji Photo Film Co., Ltd.). The results are shown in Table 7 by average value of five rats.

[2] = tested on: D-galactosamine-induced liver diseases; assay: Pharmacological effect (2) on D-galactosamine-induced liver diseases; assay type: in vivo, SD rats; details: D-galactosamine 1 g/kg rat i.p., 23 hours, average of five rats; for Total bilirubin in serum: D-galactosamine alone 1.4; for GPT in serum: D-galactosamine alone 1560; for GOT in serum: D-galactosamine alone 2542
Protocol: Pharmacological effect (2) of PQQ triesters on D-galactosamine-induced liver diseases:
Forty SD rats (male, 7 weeks old, body weight: about 260 g; supplied by Japan Charles River Co.) were divided to eight groups (A-H) each consisting of five rats. All rats were fasted for 18 hours and 1.3 ml of a solution containing 1 mg/ml of PQQ trimethyl ester was orally administered to the rats of group C, 1.3 ml of a solution containing 2 mg/ml of PQQ trimethyl ester was orally administered to the rats of group D, 1.3 ml of a solution containing 3 mg/ml of PQQ trimethyl ester was orally administered to the rats of group E, 1.3 ml of a solution containing 1 mg/ml of PQQ triallyl ester was orally administered to the rats of group F, 1.3 ml of a solution containing 2 mg/ml of PQQ triallyl ester was orally administered to the rats of group G, and 1.3 ml of a solution containing 3 mg/ml of PQQ triallyl ester was orally administered to the rats of group H and furthermore, after lapse of 40 minutes, the same PQQ triesters in the same doses as above were orally administered to respective rats. In these cases, the PQQ triesters were suspended in physiological saline containing 1% Tween 80 and administered to the rats. 1.3 ml of physiological saline was orally administered to the rats of group B in place of PQQ triesters. Furthermore, after lapse of 20 minutes, 1.3 ml of a solution of d-galactosamine in 10 ml of physiological saline was intraperitoneally administered to the rats of groups B-H. Neither PQQ triesters nor D-galactosamine were administered to the rats of group A.
as §1
GPT, GOT and amount of total bilirubin in the serum were measured by clinical examination reagent (trademark: FUJI DRYCHEMSLIDE manufactured by Fuji Photo Film Co., Ltd.). The results are shown in Table 8 by average value of five rats.

C=CCOC(=O)c1cc(C(=O)OCC=C)c2c(n1)C(=O)C(=O)c1cc(C(=O)OCC=C)[nH]c1-2 [PQQ triallyl ester]
glucose in urine (mice; i.p. 20 mg/kg, day 1): -
glucose in urine (mice; i.p. 20 mg/kg, day 2): -
glucose in urine (mice; i.p. 20 mg/kg, day 3): -
glucose in urine (mice; i.p. 20 mg/kg, day 6): -
glucose in urine (mice; i.p. 20 mg/kg, day 7): -
glucose in urine (mice; i.p. 20 mg/kg, day 8): -
glucose in urine (mice; i.p. 20 mg/kg, day 10): -
glucose in urine (mice; i.p. 20 mg/kg, day 13): -
glucose in urine (mice; i.p. 20 mg/kg, day 14): -
glucose in urine (mice; i.p. 40 mg/kg, day 1): -
glucose in urine (mice; i.p. 40 mg/kg, day 2): -
glucose in urine (mice; i.p. 40 mg/kg, day 3): -
glucose in urine (mice; i.p. 40 mg/kg, day 6): -
glucose in urine (mice; i.p. 40 mg/kg, day 7): -
glucose in urine (mice; i.p. 40 mg/kg, day 8): -
glucose in urine (mice; i.p. 40 mg/kg, day 10): -
glucose in urine (mice; i.p. 40 mg/kg, day 13): -
glucose in urine (mice; i.p. 40 mg/kg, day 14): -
glucose in urine (mice; i.p. 80 mg/kg, day 1): -
glucose in urine (mice; i.p. 80 mg/kg, day 2): -
glucose in urine (mice; i.p. 80 mg/kg, day 3): -
glucose in urine (mice; i.p. 80 mg/kg, day 6): -
glucose in urine (mice; i.p. 80 mg/kg, day 7): -
glucose in urine (mice; i.p. 80 mg/kg, day 8): -
glucose in urine (mice; i.p. 80 mg/kg, day 10): -
glucose in urine (mice; i.p. 80 mg/kg, day 13): -
glucose in urine (mice; i.p. 80 mg/kg, day 14): -
glucose in urine (mice; i.p. 160 mg/kg, day 1): -
glucose in urine (mice; i.p. 160 mg/kg, day 2): -
glucose in urine (mice; i.p. 160 mg/kg, day 3): -
glucose in urine (mice; i.p. 160 mg/kg, day 6): -
glucose in urine (mice; i.p. 160 mg/kg, day 7): -
glucose in urine (mice; i.p. 160 mg/kg, day 8): -
glucose in urine (mice; i.p. 160 mg/kg, day 10): -
glucose in urine (mice; i.p. 160 mg/kg, day 13): -
glucose in urine (mice; i.p. 160 mg/kg, day 14): -
glucose in urine (mice; i.p. 200 mg/kg, day 1): -
glucose in urine (mice; i.p. 200 mg/kg, day 2): -
glucose in urine (mice; i.p. 200 mg/kg, day 3): -
glucose in urine (mice; i.p. 200 mg/kg, day 6): -
glucose in urine (mice; i.p. 200 mg/kg, day 7): -
glucose in urine (mice; i.p. 200 mg/kg, day 8): -
glucose in urine (mice; i.p. 200 mg/kg, day 10): -
glucose in urine (mice; i.p. 200 mg/kg, day 13): -
glucose in urine (mice; i.p. 200 mg/kg, day 14): -
glucose in urine (in words) (mice): no glucose was detected
Total bilirubin in serum ([1]; i.p. 2 mg/kg rat twice): 0.8 mg/dL
GPT in serum ([1]; i.p. 2 mg/kg rat twice): 538 U/l
GOT in serum ([1]; i.p. 2 mg/kg rat twice): 1132 U/l
Total bilirubin in serum ([1]; i.p. 5 mg/kg rat twice): 0.8 mg/dL
GPT in serum ([1]; i.p. 5 mg/kg rat twice): 322 U/l
GOT in serum ([1]; i.p. 5 mg/kg rat twice): 648 U/l
Total bilirubin in serum ([1]; i.p. 10 mg/kg rat twice): 0.6 mg/dL
GPT in serum ([1]; i.p. 10 mg/kg rat twice): 120 U/l
GOT in serum ([1]; i.p. 10 mg/kg rat twice): 480 U/l
Total bilirubin in serum ([2]; oral 5 mg/kg rat twice): 1.1 mg/dL
GPT in serum ([2]; oral 5 mg/kg rat twice): 619 U/l
GOT in serum ([2]; oral 5 mg/kg rat twice): 1409 U/l
Total bilirubin in serum ([2]; oral 10 mg/kg rat twice): 0.9 mg/dL
GPT in serum ([2]; oral 10 mg/kg rat twice): 570 U/l
GOT in serum ([2]; oral 10 mg/kg rat twice): 1184 U/l
Total bilirubin in serum ([2]; oral 15 mg/kg rat twice): 1.0 mg/dL
GPT in serum ([2]; oral 15 mg/kg rat twice): 593 U/l
GOT in serum ([2]; oral 15 mg/kg rat twice): 1742 U/l

COC(=O)c1cc(C(=O)OC)c2c(n1)C(=O)C(=O)c1cc(C(=O)OC)[nH]c1-2 [PQQ trimethyl ester]
glucose in urine (mice; i.p. 20 mg/kg, day 1): -
glucose in urine (mice; i.p. 20 mg/kg, day 2): -
glucose in urine (mice; i.p. 20 mg/kg, day 3): -
glucose in urine (mice; i.p. 20 mg/kg, day 6): -
glucose in urine (mice; i.p. 20 mg/kg, day 7): -
glucose in urine (mice; i.p. 20 mg/kg, day 8): -
glucose in urine (mice; i.p. 20 mg/kg, day 10): -
glucose in urine (mice; i.p. 20 mg/kg, day 13): -
glucose in urine (mice; i.p. 20 mg/kg, day 14): -
glucose in urine (mice; i.p. 40 mg/kg, day 1): -
glucose in urine (mice; i.p. 40 mg/kg, day 2): -
glucose in urine (mice; i.p. 40 mg/kg, day 3): -
glucose in urine (mice; i.p. 40 mg/kg, day 6): -
glucose in urine (mice; i.p. 40 mg/kg, day 7): -
glucose in urine (mice; i.p. 40 mg/kg, day 8): -
glucose in urine (mice; i.p. 40 mg/kg, day 10): -
glucose in urine (mice; i.p. 40 mg/kg, day 13): -
glucose in urine (mice; i.p. 40 mg/kg, day 14): -
glucose in urine (mice; i.p. 80 mg/kg, day 1): -
glucose in urine (mice; i.p. 80 mg/kg, day 2): -
glucose in urine (mice; i.p. 80 mg/kg, day 3): -
glucose in urine (mice; i.p. 80 mg/kg, day 6): -
glucose in urine (mice; i.p. 80 mg/kg, day 7): -
glucose in urine (mice; i.p. 80 mg/kg, day 8): -
glucose in urine (mice; i.p. 80 mg/kg, day 10): -
glucose in urine (mice; i.p. 80 mg/kg, day 13): -
glucose in urine (mice; i.p. 80 mg/kg, day 14): -
glucose in urine (mice; i.p. 160 mg/kg, day 1): -
glucose in urine (mice; i.p. 160 mg/kg, day 2): -
glucose in urine (mice; i.p. 160 mg/kg, day 3): -
glucose in urine (mice; i.p. 160 mg/kg, day 6): -
glucose in urine (mice; i.p. 160 mg/kg, day 7): -
glucose in urine (mice; i.p. 160 mg/kg, day 8): -
glucose in urine (mice; i.p. 160 mg/kg, day 10): -
glucose in urine (mice; i.p. 160 mg/kg, day 13): -
glucose in urine (mice; i.p. 160 mg/kg, day 14): -
glucose in urine (mice; i.p. 200 mg/kg, day 1): -
glucose in urine (mice; i.p. 200 mg/kg, day 2): -
glucose in urine (mice; i.p. 200 mg/kg, day 3): -
glucose in urine (mice; i.p. 200 mg/kg, day 6): -
glucose in urine (mice; i.p. 200 mg/kg, day 7): -
glucose in urine (mice; i.p. 200 mg/kg, day 8): -
glucose in urine (mice; i.p. 200 mg/kg, day 10): -
glucose in urine (mice; i.p. 200 mg/kg, day 13): -
glucose in urine (mice; i.p. 200 mg/kg, day 14): -
glucose in urine (in words) (mice): no glucose was detected
Total bilirubin in serum ([1]; i.p. 2 mg/kg rat twice): 0.9 mg/dL
GPT in serum ([1]; i.p. 2 mg/kg rat twice): 447 U/l
GOT in serum ([1]; i.p. 2 mg/kg rat twice): 970 U/l
Total bilirubin in serum ([1]; i.p. 5 mg/kg rat twice): 0.5 mg/dL
GPT in serum ([1]; i.p. 5 mg/kg rat twice): 182 U/l
GOT in serum ([1]; i.p. 5 mg/kg rat twice): 544 U/l
Total bilirubin in serum ([1]; i.p. 10 mg/kg rat twice): 0.7 mg/dL
GPT in serum ([1]; i.p. 10 mg/kg rat twice): 388 U/l
GOT in serum ([1]; i.p. 10 mg/kg rat twice): 833 U/l
Total bilirubin in serum ([2]; oral 5 mg/kg rat twice): 0.8 mg/dL
GPT in serum ([2]; oral 5 mg/kg rat twice): 431 U/l
GOT in serum ([2]; oral 5 mg/kg rat twice): 926 U/l
Total bilirubin in serum ([2]; oral 10 mg/kg rat twice): 0.7 mg/dL
GPT in serum ([2]; oral 10 mg/kg rat twice): 330 U/l
GOT in serum ([2]; oral 10 mg/kg rat twice): 540 U/l
Total bilirubin in serum ([2]; oral 15 mg/kg rat twice): 1.0 mg/dL
GPT in serum ([2]; oral 15 mg/kg rat twice): 701 U/l
GOT in serum ([2]; oral 15 mg/kg rat twice): 1260 U/l

Reference: US5061711A, “Method of curing liver diseases by using pyrrolo quinoline quinone triesters and novel pyrrolo quinoline quinone triesters” (Mitsubishi Gas Chemical Company, Inc., priority 1989, dated 1991)
